Here are results for 26 molecules from patent US20230312587A1, “PTERIDINONE COMPOUNDS AND USES THEREOF” (Vertex Pharmaceutical Incorporated, priority 2018, published 2023).

Read-outs that look alike come from different tables or passages of the source.

This experiment concerns Hek293 empty vector. The experiment can be described thus: In vitro cell viability (CellTiter-Glo), Hek293 empty vector. It counts as cell-based. Particulars: read-out: Hek293 empty vector viability. As to the method:
HEK293 (ATCC, catalog #CRL-1573) cells are plated in 10 cm dishes (Corning, product #430167) into 10 mL of complete DMEM cell culture media [DMEM (Life Technologies, product #11960-051) media supplemented with 10% FBS (Hyclone, catalog #SH30071.03), antimycotic/antibiotic (Life Technologies, product #15240-062), and Glutamax (Life Technologies, product #35050-061)] at 3×10^6 cells per dish. Cells are allowed to attach and grow overnight at 37° C. in humidified 5% CO2. Cells are co-transfected with pVSV-G, pCMV-Gag/Pol and pCLPCX_WFS1 using Fugene 6 (Promega, catalog #E2691) according to manufacturer's protocol. Separately, cells are co-transfected with pVSV-G, pCMV-Gag/Pol and pCLPCX to produce control retrovirus. Cell culture media containing retrovirus (viral supernatant) is collected at 48 and 72 hours following transfection, filtered through a 0.4 uM filter, and stored at −80° C.
HEK293 cells are plated in 6 well plates (Corning, product #3516) in 2 mL of complete DMEM cell culture media at 1×10^5 cells well and allowed to attach and grow overnight at 37° C. in humidified 5% CO2. The following day, the media is replaced with viral supernatant to which 10 ug/ml of Polybrene® (Santa Cruz Biotech, catalog #sc-134220) is added. Viral supernatant is replaced 24 hours later with complete DMEM media. Transduced cells are selected in complete DMEM cell culture media containing 1 microgram/mL of puromycin (Life Technologies, catalog #A1113803).
HEK293 cells containing empty pCLPCx vector (HEK293 empty), HEK293 cells stably over-expression WFS1 (HEK293 WFS1), HepG2, and HepG2 cells where WFS1 was depleted via CRISPR/Cas9 (HepG2 WFS1 KO) cells were plated into 96-well black plates (Corning, product #3904) in 100 microliters of complete DMEM cell culture media [DMEM (Life Technologies, product #11960-051) media supplemented with 10% FBS (Hyclone, catalog #SH30071.03), antimycotic/antibiotic (Life Technologies, product #15240-062), and Glutamax (Life Technologies, product #35050-061)] at 1,000 (HEK293) or 5,000 (HepG2) cells per well. Cells were allowed to attach and grow overnight, after which compounds are added at various concentrations. Cell viability was assessed 96 hrs after compound addition with CellTiter-Glo reagent (Promega, catalog #G7570) according to manufacturer's protocol and measurement on a Pherastar luminescence plate reader (BMG Labtech).
The IC50s for the viability of both the Hek293 empty vector and WFS1 over-expressing cells are summarized in Table 47: A<0.06 μM; 0.06 μM≤B<0.6 μM; 0.6 μM≤C<3.0 μM; D≥3.0 μM.
On the technique in general: In ATP-based viability assays light output follows the ATP content of the culture.

With `Cc1nc(NCc2cnn(CCC3CCOCC3)c2)nc2c1NC(=O)[C@H](C)N2C` [Compound 115, (7S)-4,7,8-trimethyl-2-(((1-(2-(tetrahydro-2H-pyran-4-yl)ethyl)-1H-pyrazol-4-yl)methyl)amino)-7,8-dihydropteridin-6(5H)-one], the IC50 (Homo sapiens, HEK293) is no less than 3000 nM. The same measure, in the same setting: with `Cc1nc(N[C@H]2C[C@H](Oc3ccc(F)cc3)C2)nc2c1N(C)C(=O)[C@H](C)N2C` [Compound 250, (7S)-2-((trans-3-(4-fluorophenoxy)cyclobutyl)amino)-4,5,7,8-tetramethyl-7,8-dihydropteridin-6(5H)-one] the figure was no less than 3000 nM; with `Cc1nc(NCc2cnn(Cc3ccc(F)cc3)c2)nc2c1NC(=O)C1(CC1)N2` [Compound 222, 2′-(((1-(4-fluorobenzyl)-1H-pyrazol-4-yl)methyl)amino)-4′-methyl-5′,8′-dihydro-6′H-spiro[cyclopropane-1,7′-pteridin]-6′-one], no less than 3000 nM; with `Cc1nc(NCc2cnn(C[C@H](C)c3ccc(F)cc3)c2)nc2c1NC(=O)[C@H](C)N2C` [Compound 96, (7S)-2-(((1-((R)-2-(4-fluorophenyl)propyl)-1H-pyrazol-4-yl)methyl)amino)-4,7,8-trimethyl-7,8-dihydropteridin-6(5H)-one], no less than 3000 nM. Regarding “(7S)-4,7,8-trimethyl-2-((trans-3-(3,4-difluorophenoxy)cyclobutyl)amino)-7,8-dihydropteridin-6(5H)-one [Compound 251]”, the IC50 (Hek293 empty vector) was no less than 3000 nM. As to `Cc1nc(NCc2cn(Cc3ccc(C(F)(F)F)nc3)nc2Br)nc2c1NC(=O)[C@H](C)N2C` [Compound 412, (S)-2-(((3-bromo-1-((6-(trifluoromethyl)pyridin-3-yl)methyl)-1H-pyrazol-4-yl)methyl)amino)-4,7,8-trimethyl-7,8-dihydropteridin-6(5H)-one], under “Homo sapiens, HEK293”, the IC50 is no less than 3000 nM.

Turning to `Cc1nc(NCc2cnn(CC(C)(O)c3ccc(F)cc3)c2)nc2c1NC(=O)[C@H](C)N2C` (stereo partly drawn) [Compound 128, (7S)-2-(((1-(2-(4-fluorophenyl)-2-hydroxypropyl)-1H-pyrazol-4-yl)methyl)amino)-4,7,8-trimethyl-7,8-dihydropteridin-6(5H)-one], where the note is “Homo sapiens, HEK293”, the IC50 is no less than 3000 nM. Turning to `Cc1nc(N[C@H]2C[C@H](Sc3ccc(F)cc3)C2)nc2c1N(C)C(=O)[C@H](C)N2C` [Compound 307, (7S)-2-((trans-3-((4-fluorophenyl)thio)cyclobutyl)amino)-4,5,7,8-tetramethyl-7,8-dihydropteridin-6(5H)-one], under “Homo sapiens, HEK293”, the IC50 is no less than 3000 nM. Still for that read-out and setting: the value for `Cc1nc(NCc2cnn([C@H]3CCN(C4CCC(F)(F)CC4)C3)c2)nc2c1NC(=O)[C@H](C)N2C` [Compound 142, (7S)-2-(((1-((S)-1-(4,4-difluorocyclohexyl)pyrrolidin-3-yl)-1H-pyrazol-4-yl)methyl)amino)-4,7,8-trimethyl-7,8-dihydropteridin-6(5H)-one] was no less than 3000 nM; that for `Cc1nc(N[C@H]2C[C@@H](COc3ccc(C(F)(F)F)cn3)C2)nc2c1NC(=O)[C@H](C)N2C` [Compound 356, (7S)-4,7,8-trimethyl-2-((cis-3-(((5-(trifluoromethyl)pyridin-2-yl)oxy)methyl)cyclobutyl)amino)-7,8-dihydropteridin-6(5H)-one] was no less than 3000 nM; that for `COc1cc(F)ccc1Cn1cc(CNc2nc(C)c3c(n2)N(C)[C@@H](C)C(=O)N3)cn1` [Compound 83, (7S)-2-(((1-(4-fluoro-2-methoxybenzyl)-1H-pyrazol-4-yl)methyl)amino)-4,7,8-trimethyl-7,8-dihydropteridin-6(5H)-one] was no less than 3000 nM. The same measure, in the same setting: with `Cc1cnc(C(F)(F)F)nc1-n1cc(CNc2ncc3c(n2)N(C)[C@@H](C)C(=O)N3)cn1` [Compound 164, (7S)-7,8-dimethyl-2-(((1-(5-methyl-2-(trifluoromethyl)pyrimidin-4-yl)-1H-pyrazol-4-yl)methyl)amino)-7,8-dihydropteridin-6(5H)-one] the figure was no less than 3000 nM; with `Cc1nc(NCc2cnn([C@@H]3CCN(c4ccc(F)cc4)C3)c2)nc2c1NC(=O)[C@H](C)N2C` [Compound 170, (7S)-2-(((1-((R)-1-(4-fluorophenyl)pyrrolidin-3-yl)-1H-pyrazol-4-yl)methyl)amino)-4,7,8-trimethyl-7,8-dihydropteridin-6(5H)-one], no less than 3000 nM; with `CCOc1ccc(CCn2cc(CNc3ncc4c(n3)N(C)[C@@H](C)C(=O)N4)cn2)cc1` [Compound 121, (7S)-2-(((1-(4-ethoxyphenethyl)-1H-pyrazol-4-yl)methyl)amino)-7,8-dimethyl-7,8-dihydropteridin-6(5H)-one], no less than 3000 nM.

For the molecule `Cc1nc(NCc2cnn(CCc3ccc(F)cc3)c2)nc2c1N(C)C(=O)[C@H](C)N2C` [Compound 8, (7S)-2-(((1-(4-fluorophenethyl)-1H-pyrazol-4-yl)methyl)amino)-4,5,7,8-tetramethyl-7,8-dihydropteridin-6(5H)-one], the IC50 (Homo sapiens, HEK293) was no less than 3000 nM. Turning to `Cc1nc(N[C@H]2C[C@@H](Oc3cc(F)c(F)c(F)c3)C2)nc2c1NC(=O)[C@H](C)N2C` [Compound 247, (7S)-4,7,8-trimethyl-2-((cis-3-(3,4,5-trifluorophenoxy)cyclobutyl)amino)-7,8-dihydropteridin-6(5H)-one], the IC50 (Homo sapiens, HEK293) is no less than 3000 nM. The same measure, in the same setting: the value for `Cc1nc(N[C@H]2C[C@H](Oc3ccc(F)nc3)C2)nc2c1NC(=O)[C@H](C)N2C` [Compound 357, (7S)-2-((trans-3-((6-fluoropyridin-3-yl)oxy)cyclobutyl)amino)-4,7,8-trimethyl-7,8-dihydropteridin-6(5H)-one] was no less than 3000 nM. On the same count and under the same terms, with `Cc1nc(N[C@H]2C[C@H](Sc3cc(F)c(F)c(F)c3)C2)nc2c1NC(=O)[C@H](C)N2C` [Compound 329, (7S)-4,7,8-trimethyl-2-((trans-3-((3,4,5-trifluorophenyl)thio)-cyclobutyl)amino)-7,8-dihydropteridin-6(5H)-one] the figure was no less than 3000 nM; with `Cc1nc(N[C@H]2CC[C@H](Oc3ccc(C(F)(F)F)nc3)C2)nc2c1NC(=O)[C@H](C)N2C` (single isomer, unassigned) [Compound 376], no less than 3000 nM; with `Cc1nc(N[C@@H]2CC[C@@H](n3ccc(C(F)(F)F)n3)C2)nc2c1NC(=O)[C@H](C)N2C` (single isomer, unassigned) [Compound 311], no less than 3000 nM. As to `Cc1ccc(Cn2cc(CNc3nc(C)c4c(n3)N(C)[C@@H](C)C(=O)N4)cn2)cn1` [Compound 173, (7S)-4,7,8-trimethyl-2-(((1-((6-methylpyridin-3-yl)methyl)-1H-pyrazol-4-yl)methyl)amino)-7,8-dihydropteridin-6(5H)-one], for the setting “Homo sapiens, HEK293”, the IC50 was no less than 3000 nM.

`Cc1nc(N[C@H]2CC[C@H](n3ccc(C(F)(F)F)n3)C2)nc2c1NC(=O)[C@H](C)N2C` (single isomer, unassigned) [Compound 310]: the IC50 (Homo sapiens, HEK293) was no less than 3000 nM. Same read-out and setting: with `Cc1ncc(Cn2cc(CNc3nc(C)c4c(n3)N(C)[C@@H](C)C(=O)N4)cn2)cn1` [Compound 163, (7S)-4,7,8-trimethyl-2-(((1-((2-methylpyrimidin-5-yl)methyl)-1H-pyrazol-4-yl)methyl)amino)-7,8-dihydropteridin-6(5H)-one] the figure was no less than 3000 nM. On to `Cc1nc(N[C@H]2C[C@@H](Sc3ccc(F)cc3)C2)nc2c1N(C)C(=O)[C@H](C)N2C` [Compound 305, (7S)-2-((cis-3-((4-fluorophenyl)thio)cyclobutyl)amino)-4,5,7,8-tetramethyl-7,8-dihydropteridin-6(5H)-one], for which the IC50 (Homo sapiens, HEK293) was no less than 3000 nM. Same read-out and setting: with `Cc1nc(N(C)Cc2cnn(Cc3ccc(C(F)(F)F)nc3)c2)nc2c1NC(=O)[C@H](C)N2C` [Compound 403, (7S)-4,7,8-trimethyl-2-(methyl((1-((6-(trifluoromethyl)pyridin-3-yl)methyl)-1H-pyrazol-4-yl)methyl)amino)-7,8-dihydropteridin-6(5H)-one] the figure was no less than 3000 nM. The same measure, in the same setting: with `CN1C(=O)C(C)(C)N(C)c2nc(NCc3cnn(Cc4cccnc4C(F)(F)F)c3)ncc21` [Compound 237, 5,7,7,8-Tetramethyl-2-(((1-((2-(trifluoromethyl)pyridin-3-yl)methyl)-1H-pyrazol-4-yl)methyl)amino)-7,8-dihydropteridin-6(5H)-one] the figure was no less than 3000 nM.
